Test [1] concerns Citrobacter freundii DSM-30039. Description: MIC microdilution, C. freundii DSM-30039. Format: cell-based. The note with it: Citrobacter freundii, DSM30039. On the procedure:
(§1) Indicator strains used in susceptibility assays were either part of our strain collection or purchased from the German Collection of Microorgansims and Cell Cultures (DSMZ) or from the American Type Culture Collection (ATCC). E. coli strain WT and corresponding E. coli mutants were kindly provided by Prof. Dr. P. Heisig, Pharmaceutical Biology and Microbiology, University of Hamburg. E. coli strains JW0401-1 (WT) and Δtsx were obtained from the CGSC collection.
(§2) MIC values were determined in standardized microdilution assays. Overnight cultures were diluted in the appropriate growth medium to achieve an inoculum of 10^4-10^6 cfu/mL. Yeasts were grown in Myc medium (1% phytone peptone, 1% glucose, 50 mM HEPES, pH 7.0), S. pneumonia and Enterococcus spp. in tryptic soy broth (TSB: 1.7% peptone casein, 0.3% peptone soymeal, 0.25% glucose, 0.5% NaCl, 0.25% K2HPO4; pH 7.3); M. smegmatis in Middlebrook 7H9 medium supplemented with 10% Middlebrook ADC enrichment and 2 ml/I glycerol). All other listed bacteria were grown in Müller-Hinton broth (0.2% beef infusion solids, 1.75% casein hydrolysate, 0.15% starch, pH 7.4). Cystobactamides and reference drugs were added directly to the cultures in sterile 96-well plates as duplicates and serial dilutions were prepared. Microorganisms were grown on a microplate shaker (750 rpm, 30-37° C., 18-48 h), except S. pneumonia, which was grown at non-shaking conditions (37° C., 5% CO2, 18 h). Growth inhibition was assessed by visual inspection and the MIC was defined as the lowest concentration of compound that inhibited visible growth.

The subject of test [2] is Enterobacter cloacae DSM-30054. Kind of test: MIC microdilution, Enterobacter cloacae DSM-30054. Type of test: cell-based. As to conditions: Enterobacter cloacae, DSM30054, read-out: MIC Enterobacter cloacae DSM-30054. The method, then: Dr. P. Heisig, Pharmaceutical Biology and Microbiology, University of Hamburg.
Overnight cultures were diluted in the appropriate growth medium to achieve an inoculum of 10^4-10^6 cfu/mL. […] Cystobactamides and reference drugs were added directly to the cultures in sterile 96-well plates as duplicates and serial dilutions were prepared. Microorganisms were grown on a microplate shaker (750 rpm, 30-37° C., 18-48 h), except S. pneumonia, which was grown at non-shaking conditions (37° C., 5% CO2, 18 h). Growth inhibition was assessed by visual inspection and the MIC was defined as the lowest concentration of compound that inhibited visible growth.

The test system of test [3] is E. coli DSM-26863 (tolC3). Description: MIC microdilution, E. coli DSM-26863 (tolC3). Format: cell-based, Escherichia coli. As to conditions: Escherichia coli. On the procedure:
as §1, §2

The test system of the next test is E. coli JW0401-1 (WT). Kind of test: MIC microdilution, E. coli JW0401-1 (WT). Type of test: cell-based, Escherichia coli. The note with it: Escherichia coli; Gram-negative set. On the procedure: as §1
as §2, with “Cystobactamides and reference drugs were added directly to the cultures in sterile 96-well plates as duplicates and serial dilutions were prepared. Microorganisms were grown on a microplate shaker (750 rpm, 30-37° C., 18-48 h), except S. pneumonia, which was grown at non-shaking conditions (37° C., 5% CO2, 18 h).” left out

The subject of test [4] is Acinetobacter baumannii DSM-30008. Kind of test: MIC microdilution, A. baumannii DSM-30008. Format: cell-based. As to conditions: Acinetobacter baumannii, DSM30008. On the procedure: as §1, §2
Another test concerns E. coli Δtsx. Kind of test: MIC microdilution, E. coli Δtsx. Format: cell-based, Escherichia coli. The note with it: Gram-negative set. On the procedure: as §1
as §2, with “Cystobactamides and reference drugs were added directly to the cultures in sterile 96-well plates as duplicates and serial dilutions were prepared. Microorganisms were grown on a microplate shaker (750 rpm, 30-37° C., 18-48 h), except S. pneumonia, which was grown at non-shaking conditions (37° C., 5% CO2, 18 h).” left out

The subject of test [5] is Enterobacter aerogenes DSM-30053. Kind of test: MIC microdilution, Enterobacter aerogenes DSM-30053. Format: cell-based. The note with it: Klebsiella aerogenes. The method, then:
as §1
as §2, with “Cystobactamides and reference drugs were added directly to the cultures in sterile 96-well plates as duplicates and serial dilutions were prepared. Microorganisms were grown on a microplate shaker (750 rpm, 30-37° C., 18-48 h), except S. pneumonia, which was grown at non-shaking conditions (37° C., 5% CO2, 18 h).” left out

The test system of test [6] is Chromobacterium violaceum DSM-30191. Description: MIC microdilution, Chromobacterium violaceum DSM-30191. Type of test: cell-based. On the procedure: as §1
as §2, with “Cystobactamides and reference drugs were added directly to the cultures in sterile 96-well plates as duplicates and serial dilutions were prepared. Microorganisms were grown on a microplate shaker (750 rpm, 30-37° C., 18-48 h), except S. pneumonia, which was grown at non-shaking conditions (37° C., 5% CO2, 18 h).” left out

Test [7] concerns Pseudomonas aeruginosa PA14. Description: MIC microdilution, P. aeruginosa PA14. Type of test: cell-based. As to conditions: Pseudomonas aeruginosa. On the procedure:
as §1, §2

Test [8] has as its system E. coli WT-3 [gyrA(S83L, D87G)]. Description: MIC microdilution, E. coli WT-3 [gyrA(S83L, D87G)]. Format: cell-based, Escherichia coli. The note with it: Escherichia coli. The method, then:
as §1, §2

Another test deals with E. coli WT. Kind of test: MIC microdilution, E. coli WT. As to conditions: Escherichia coli. Format: cell-based, Escherichia coli. On the procedure: as §1, §2
Another test addresses T1, P. aeruginosa gyrase (Pseudomonas aeruginosa, UniProt P48372+Q9I7C2).
T1 construct: purchased Inspiralis, Norwich, UK
Kind of test: P. aeruginosa gyrase DNA supercoiling assay. Format: biochemical. The note with it: read-out: IC50 Pa gyrase (sc). On the procedure: (§3) To test the anti-gyrase activity of cystobactamides, commercial E. coli and P. aeruginosa gyrase supercoiling kits (Inspiralis, Norwich, UK) were used. For standard reactions 0.5 μg relaxed plasmid were mixed with 1 unit gyrase in 1× reaction buffer (see kit manual) and incubated for 30 min at 37° C. The reactions were quenched by the addition of DNA gel loading buffer containing 10% (w/v) SDS. The samples were separated on 1% (w/v) agarose gels and DNA was visualized using EtBr. All natural products stock solutions and dilutions were prepared in 100% DMSO and added to the supercoiling reactions giving a final DMSO concentration of 2% (v/v).

The subject of test [9] is Escherichia coli ATCC25922. Description: MIC microdilution, E. coli ATCC25922. Type of test: cell-based. On the procedure:
as §1
as §2, with “Cystobactamides and reference drugs were added directly to the cultures in sterile 96-well plates as duplicates and serial dilutions were prepared. Microorganisms were grown on a microplate shaker (750 rpm, 30-37° C., 18-48 h), except S. pneumonia, which was grown at non-shaking conditions (37° C., 5% CO2, 18 h).” left out

Test [10] relates to Staphylococcus aureus ATCC29213. Description: MIC microdilution, Staphylococcus aureus ATCC29213. Type of test: cell-based. As to conditions: ATCC29213, read-out: MIC Staphylococcus aureus ATCC29213. The method, then:
as §1
as §2, with “Cystobactamides and reference drugs were added directly to the cultures in sterile 96-well plates as duplicates and serial dilutions were prepared. Microorganisms were grown on a microplate shaker (750 rpm, 30-37° C., 18-48 h), except S. pneumonia, which was grown at non-shaking conditions (37° C., 5% CO2, 18 h).” left out

The target of the next test is T2, E. coli gyrase (Escherichia coli, UniProt P0AES4+P0AES6).
T2 construct: purchased Inspiralis, Norwich, UK
Description: E. coli gyrase DNA supercoiling assay. As to conditions: read-out: IC50 Ec gyrase (sc). Type of test: biochemical. The method, then: as §3

The subject of test [11] is Escherichia coli (TolC-deficient). Description: MIC microdilution, E. coli (TolC-deficient). Type of test: cell-based. The note with it: Escherichia coli, read-out: MIC Escherichia coli (TolC-deficient). On the procedure:
as §1
as §2, with “Cystobactamides and reference drugs were added directly to the cultures in sterile 96-well plates as duplicates and serial dilutions were prepared. Microorganisms were grown on a microplate shaker (750 rpm, 30-37° C., 18-48 h), except S. pneumonia, which was grown at non-shaking conditions (37° C., 5% CO2, 18 h).” left out

The mark [12] stands for this setting: Gram-negative set, read-out: MIC C. freundii DSM-30039.
[13] abbreviates: larger panel, read-out: MIC Citrobacter freundii DSM-30039.
[14] abbreviates: DSM26863, read-out: MIC E. coli DSM-26863 (tolC3).
[15] abbreviates: DSM26863, read-out: MIC Escherichia coli DSM-26863 (tolC3).
The mark [16] stands for this setting: Gram-negative set, read-out: MIC A. baumannii DSM-30008.
The mark [17] stands for this setting: larger panel, read-out: MIC Acinetobacter baumannii DSM-30008.
Setting [18] is: read-out: MIC E. coli WT-3 [gyrA(S83L, D87G)].
Where [19] appears, read: read-out: MIC Escherichia coli WT-3 [gyrA(S83L, D87G)].
Where [20] appears, read: Gram-negative set, read-out: MIC E. coli WT.
Where [21] appears, read: larger panel, read-out: MIC Escherichia coli WT.

Converted amounts (≈) assume the structure as drawn. Read-outs that look alike come from different tables or passages of the source.

Take `COC(C(N)=O)C(NC(=O)c1ccc(NC(=O)c2ccc([N+](=O)[O-])cc2)cc1)C(=O)Nc1ccc(C(=O)Nc2ccc(C(=O)Nc3ccc(C(=O)O)cc3OC(C)C)c(O)c2OC(C)C)cc1` (centres unmarked) [Cys 919-2]: the MIC in test [1] (setting [12]) is 1 µg/mL (≈ 1.09 µM); in [1] (setting [13]), 1 µg/mL (≈ 1.09 µM); in [2], over 64 µg/mL; in [3] (setting [14]) it was 0.25 µg/mL (≈ 0.272 µM); in test [3] (setting [15]), 0.5 to 1 µg/mL (≈ 0.544 to 1.09 µM); with E. coli JW0401-1 (WT) it was 1 µg/mL (≈ 1.09 µM). In addition, the MIC in test [4] (setting [16]) is 8 µg/mL (≈ 8.7 µM); in test [4] (setting [17]), 8 µg/mL (≈ 8.7 µM); in test [5] (DSM30053, read-out: MIC Enterobacter aerogenes DSM-30053), over 64 µg/mL; in test [6] (DSM30191, read-out: MIC Chromobacterium violaceum DSM-30191), 15 µg/mL (≈ 16.3 µM); in test [7] (PA14, read-out: MIC Pseudomonas aeruginosa PA14) it was over 64 µg/mL; in test [8] (setting [18]), 64 µg/mL (≈ 69.6 µM). Moreover, the MIC in [8] (setting [19]) was 16 to 32 µg/mL (≈ 17.4 to 34.8 µM); in the test with E. coli WT (setting [20]) it was 0.5 µg/mL (≈ 0.544 µM); in the test on E. coli WT (setting [21]) it was 0.5 µg/mL (≈ 0.544 µM); in test [9] (ATCC25922, read-out: MIC Escherichia coli ATCC25922), 0.5 µg/mL (≈ 0.544 µM); in test [10], 0.1 µg/mL (≈ 0.109 µM). For the same molecule, the “MIC E. coli Δtsx” value in the test with E. coli Δtsx is 1 µg/mL (≈ 1.09 µM). For the same molecule, the figures for the IC50 at P. aeruginosa gyrase and on E. coli gyrase were 340 nM and 670 nM, respectively.

Consider `O=C(O)c1cn(C2CC2)c2cc(N3CCNCC3)c(F)cc2c1=O` [CP, Ciprofloxacin, reference compound], for which the MIC in [1] (setting [12]) was 0.003 µg/mL (≈ 0.00905 µM); in test [1] (setting [13]) it was 0.003 µg/mL (≈ 0.00905 µM); in [3] (setting [14]), at most 0.003 µg/mL; in test [3] (setting [15]) it was 0.003 µg/mL (≈ 0.00905 µM); in [4] (setting [16]) it was 0.8 µg/mL (≈ 2.41 µM); in test [4] (setting [17]), 0.2 to 0.4 µg/mL (≈ 0.604 to 1.21 µM). The MIC is 0.1 to 0.2 µg/mL (≈ 0.302 to 0.604 µM) in test [5] (DSM30053, larger panel, read-out: MIC Enterobacter aerogenes DSM-30053); 0.006 to 0.013 µg/mL (≈ 0.0181 to 0.0392 µM) in [6] (DSM30191, larger panel, read-out: MIC Chromobacterium violaceum DSM-30191); 0.1 µg/mL (≈ 0.302 µM) in test [7] (PA14, larger panel, read-out: MIC Pseudomonas aeruginosa PA14); 0.8 µg/mL (≈ 2.41 µM) in test [8] (setting [18]); 0.8 to 1.6 µg/mL (≈ 2.41 to 4.83 µM) in test [8] (setting [19]); 0.01 µg/mL (≈ 0.0302 µM) in test [11]. Moreover, the MIC with E. coli WT (setting [20]) is 0.013 µg/mL (≈ 0.0392 µM); in the test on E. coli WT (setting [21]) it was 0.013 µg/mL (≈ 0.0392 µM); in test [9] (ATCC25922, larger panel, read-out: MIC Escherichia coli ATCC25922), 0.006 µg/mL (≈ 0.0181 µM).
